This is an account of results in patent publication US10323019B2, “Pyrazolylaminobenzimidazole derivatives as JAK inhibitors” (Eli Lilly and Company, priority 2016, dated 2019).

SMILES strings stand for the structures. Read-outs that look alike come from different tables or passages of the source.

The assay deals with JAK2 (Rattus norvegicus (Rat), UniProt Q62689). The assay is described as follows: Rat PK/PD assay: rat whole blood ex vivo JAK2 activity (pSTAT5). Format: in vivo. The following applies: 30 mpk oral. The method, then:
Male Wistar rats, 265-285 grams (Charles River) were used for oral gavage dosing. Dose the animals (Oral gavage) at 1.82 mL/kg (0.5 mL per 275 grams). Formulate the compounds in 1% HEC vehicle containing 0.25% Tween 80 and 0.05% antifoam with 1.1 molar equivalent of methanesulfonic acid to form an in situ salt. Formulate compounds once per week, and store at 4° C. At various time points, obtain rat whole blood via tail vain bleeding in Multivette 600 μl EDTA blood collection tubes (cat#151671100PK100, Sarstedt Inc) and use for ex vivo JAK1 and JAK2 assay. Aliquot 100 ul of blood from each rat into a 96-well round bottom plate. Stimulate whole blood by recombinant IL-6 ([…], and recombinant mouse GM-CSF (cat#415-ML, lot#, R&D) for 12 min at rt. After cytokine stimulation, add whole blood into Lyse/fix (cat#558049, lot#, BD) in minitube rack; mix well 5×. Incubate 10 min at rt. Spin minitube rack at 600 g for 4 min. Aspirate with 12-channel manifold. Transfer contents of minitube rack to 96 well round-bottom plates. Spin down the cells at 3000 rpm for 1 min and discard the supernatant. Mix the cells in the well with 100 ul ice-cold MeOH and incubated on ice for 30 min. Add 150 ul PBS+2% FCS into each well and spin down at 3000 rpm, 2 min. Wash cells with 2× of 250 ul PBS+2% FCS. For cell surface and intracellular staining, mix all antibodies and add into each well and incubate 1 hr at rt in dark. The antibodies used for staining are as following: pSTAT3, Alexa Fluor 647 (cat#4324s, lot, Cell Signaling); pSTAT5, Alexa Fluor 488 (cat#3939s, lot#, Cell Signaling), anti-rat CD4, V450 (cat#561579, lot#. BD); anti-rat CD11b, Percp eFluor710 (cat#12-0110-82, lot#, eBioscience) After staining cells with Abs, wash the plates twice with PBS+2% FCS and finally re-suspend in the same 150 ul of solution. Assess cell viability by Viability Dye 780 (cat#65-0865-14, lot#, eBioscience). Perform the cytometry assay using FORTESSA.

JAK2, sequence (Q62689 whole entry): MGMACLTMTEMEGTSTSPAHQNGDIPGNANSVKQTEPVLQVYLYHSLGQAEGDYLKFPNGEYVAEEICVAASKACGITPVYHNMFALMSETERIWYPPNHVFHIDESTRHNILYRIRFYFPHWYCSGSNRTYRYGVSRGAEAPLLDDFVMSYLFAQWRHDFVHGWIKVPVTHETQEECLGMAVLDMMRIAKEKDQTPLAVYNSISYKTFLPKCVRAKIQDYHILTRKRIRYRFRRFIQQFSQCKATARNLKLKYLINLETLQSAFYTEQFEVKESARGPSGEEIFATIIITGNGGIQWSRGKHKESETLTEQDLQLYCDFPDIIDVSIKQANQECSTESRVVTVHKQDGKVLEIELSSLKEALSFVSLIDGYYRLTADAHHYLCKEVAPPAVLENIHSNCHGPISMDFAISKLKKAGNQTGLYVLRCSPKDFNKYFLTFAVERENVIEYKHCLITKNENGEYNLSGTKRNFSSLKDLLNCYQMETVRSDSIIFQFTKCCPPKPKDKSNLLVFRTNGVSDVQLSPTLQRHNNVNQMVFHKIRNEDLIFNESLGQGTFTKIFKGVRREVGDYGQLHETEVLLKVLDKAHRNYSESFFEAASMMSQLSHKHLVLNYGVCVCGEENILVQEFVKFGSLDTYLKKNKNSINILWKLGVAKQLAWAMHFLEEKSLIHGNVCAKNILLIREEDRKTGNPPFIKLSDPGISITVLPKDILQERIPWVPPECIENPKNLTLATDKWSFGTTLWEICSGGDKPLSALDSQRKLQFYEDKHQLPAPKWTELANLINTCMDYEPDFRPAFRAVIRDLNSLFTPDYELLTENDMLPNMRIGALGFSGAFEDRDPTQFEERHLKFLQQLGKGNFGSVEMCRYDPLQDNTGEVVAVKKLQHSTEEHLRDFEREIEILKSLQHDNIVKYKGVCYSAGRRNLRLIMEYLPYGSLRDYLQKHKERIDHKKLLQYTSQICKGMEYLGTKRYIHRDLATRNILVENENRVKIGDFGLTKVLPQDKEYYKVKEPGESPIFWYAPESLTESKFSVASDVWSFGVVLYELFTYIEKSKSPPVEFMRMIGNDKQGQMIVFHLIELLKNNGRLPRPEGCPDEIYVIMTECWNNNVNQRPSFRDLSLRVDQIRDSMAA

On to `COc1cc(Nc2cc(O[C@H]3CC[C@@H](NC[C@@H](O)C(F)(F)F)CC3)cc3c2ncn3C)nn1C` [Example 6, (2R)-1,1,1-Trifluoro-3-{[cis-4-({4-[(5-methoxy-1-methyl-1H-pyrazol-3-yl)amino]-1-methyl-1H-benzimidazol-6-yl}oxy)cyclohexyl]amino}propan-2-ol], for which the inhibition at 30 mg/kg reads like this: (2 hr post dosing, read-out: JAK2 inhibition 2 hr post dosing) 17.7%; (7 hr post dosing, read-out: JAK2 inhibition 7 hr post dosing) 17.4%.
